Results reported in patent publication US20210346359A1, “Use of CFTR Modulators For Treating Cerebrovascular Conditions” (Qanatpharma AG, priority 2018, published 2021).
Entries after “also recorded” stand apart in the source; their conditions may differ.

What was measured:
[1] = test system: mice with subarachnoid hemorrhage; test: Cleaved caspase-3 and Fluoro-Jade staining of cortical cells in subarachnoid hemorrhage mice; format: in vivo, mouse; conditions: 2 days post-SAH, 3 mg/kg daily for 2 days
Excerpt: The development of delayed vasoconstriction and brain injury is more rapid in the experimental mouse SAH model (2-5 days post-SAH) (12,19-21), compared to what is observed clinically (4-12 days post-SAH) (22,23). […] At 2 days post-SAH induction, animals were anesthetized with isoflurane; their brains were perfused with phosphate buffered saline (PBS) and then perfusion fixed with phosphate-buffered paraformaldehyde (4%; pH 7.4), both via the ascending aorta. Brains were immediately dissected and cut into coronal sections 1 mm posterior to the bregma. These brain sections were post-fixed in 4% paraformaldehyde (pH 7.4) for 48 hours at 4° C. and then incubated in 10% sucrose (3 hours), followed by 30% sucrose overnight (at 4° C.) for cyroprotection. The brain sections were then embedded in OCT (Sakura Finetek USA; Torrance, USA) on isopentane and dry ice. Cryostat sections (5 μm thick coronal slices) were collected on “Tissue Path Superfrost Plus Gold” slides (Fisher Scientific; Whitby, Canada) and stored at −80° C. until used.
All samples were pre-treated with 10-minute proteinase (20 μg/ml; Promega; Madison, USA), followed by a standard 60-minute blocking procedure with either 10% normal donkey serum (Jackson immunoResearch Laboratories; West Grove, USA) in PBS or 10% goat serum (Invitrogen Life Technologies; Burlington, Canada) in PBS containing 1% bovine serum albumin. Brain slices were incubated with monoclonal rabbit anti-human active cleaved caspase-3 ([…] C92-605; 1:1000 dilution; BD Biosciences Canada; Mississauga Canada) and conjugated with Alexa Fluor 488 goat anti-rabbit IgG (Invitrogen). Both antibodies were diluted in Can Get Signal® immunoreaction enhancer solution and used an incubation time of 1 hour at room temperature. Specimens were washed and mounted with CC MountÔ.
Brain slices were serially incubated with 1% NaOH/80% ethanol (5 minutes), 70% ethanol (2 minutes), distilled water (2 minutes) and 0.06% potassium permanganate (10 minutes). After washing with deionized water, brain slices were stained with 0.0004% Fluoro-jade B (Histo-Chem Inc, Jefferson, USA) in 0.1% acetic acid (15 minutes). […]
Digital immunofluorescence images were acquired using a Zeiss LSM 710 confocal laser-scanning microscope in conjunction with Zeiss ZEN 2010 software (vessel images). […] Two independent assessors counted caspase-3 and Fluoro-Jade positive cells under blinded conditions, as previously described (12). For each animal, counts were obtained from the cortical region of a single coronal brain slice 1 mm posterior to the bregma (200× magnification), which includes the left and right temporal and parietal lobes The number of positive cells counted by each assessor was averaged, yielding a mean positive cell count/animal that was then used for statistical analyses.

CFTR = CFTR (Mus musculus, UniProt P26361); test: CFTR protein in cerebral arteries of mice with subarachnoid hemorrhage; format: in vivo; design: Cerebral artery lysates were prepared by grinding artery samples in lysis buffer; from tissue; host or cells: cerebral arteries of male wild-type C57BL/6N mice (naïve, heart failure or subarachnoid hemorrhage models); conditions: 2 days post-induction, 3 mg/kg daily for 2 days
CFTR, sequence (P26361 whole entry): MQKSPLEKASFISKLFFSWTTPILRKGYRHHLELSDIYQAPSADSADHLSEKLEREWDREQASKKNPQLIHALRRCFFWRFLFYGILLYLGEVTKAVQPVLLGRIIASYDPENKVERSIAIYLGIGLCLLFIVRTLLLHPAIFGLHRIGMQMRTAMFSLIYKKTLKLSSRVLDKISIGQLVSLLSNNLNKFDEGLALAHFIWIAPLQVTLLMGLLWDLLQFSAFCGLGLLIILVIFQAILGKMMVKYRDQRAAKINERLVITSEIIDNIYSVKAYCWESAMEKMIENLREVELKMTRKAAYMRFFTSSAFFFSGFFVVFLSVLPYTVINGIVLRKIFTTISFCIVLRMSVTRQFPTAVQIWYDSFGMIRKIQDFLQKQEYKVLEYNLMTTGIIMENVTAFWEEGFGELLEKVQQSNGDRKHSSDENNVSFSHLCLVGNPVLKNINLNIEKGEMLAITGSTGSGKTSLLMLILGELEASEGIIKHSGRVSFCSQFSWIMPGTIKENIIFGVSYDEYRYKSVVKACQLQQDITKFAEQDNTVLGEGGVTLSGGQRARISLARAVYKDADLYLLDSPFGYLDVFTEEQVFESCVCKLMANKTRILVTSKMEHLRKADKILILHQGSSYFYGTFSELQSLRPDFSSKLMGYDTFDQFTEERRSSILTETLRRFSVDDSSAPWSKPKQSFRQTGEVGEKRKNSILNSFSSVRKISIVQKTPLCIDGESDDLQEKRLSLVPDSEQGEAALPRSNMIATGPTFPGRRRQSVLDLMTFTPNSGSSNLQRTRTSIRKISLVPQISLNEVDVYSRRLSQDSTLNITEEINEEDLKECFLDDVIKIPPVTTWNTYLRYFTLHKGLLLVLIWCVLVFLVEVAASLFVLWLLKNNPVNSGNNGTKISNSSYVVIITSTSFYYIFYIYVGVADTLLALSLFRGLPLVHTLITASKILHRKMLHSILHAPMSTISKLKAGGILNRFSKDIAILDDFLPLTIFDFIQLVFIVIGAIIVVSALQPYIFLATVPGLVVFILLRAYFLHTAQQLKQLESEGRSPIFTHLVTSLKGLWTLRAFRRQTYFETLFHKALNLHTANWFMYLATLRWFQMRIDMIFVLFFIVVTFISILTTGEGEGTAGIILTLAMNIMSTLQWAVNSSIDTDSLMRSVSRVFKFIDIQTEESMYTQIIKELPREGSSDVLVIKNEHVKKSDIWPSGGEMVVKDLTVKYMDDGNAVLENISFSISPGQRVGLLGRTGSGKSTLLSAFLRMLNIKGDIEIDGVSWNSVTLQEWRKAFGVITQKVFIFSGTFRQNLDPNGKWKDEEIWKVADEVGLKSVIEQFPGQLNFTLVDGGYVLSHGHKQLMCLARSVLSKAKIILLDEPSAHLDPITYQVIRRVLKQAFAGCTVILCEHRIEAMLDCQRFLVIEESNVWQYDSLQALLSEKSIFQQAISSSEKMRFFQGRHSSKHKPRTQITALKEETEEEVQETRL
Experimental: Western blots for CFTR were completed as previously described (12, 18). Cerebral artery lysates were prepared by grinding artery samples in lysis buffer containing 50 mM Tris (pH 7.3), 150 mM NaCl, 2 mM […], 0.1% Triton-X-100, 0.1% […] and protease inhibitors; the same lysis buffer was used to prepare cell culture lysates. Following lysis, the samples were centrifuged (10 minutes at 13,500 g; at 4° C.) to remove insoluble material. Immediately prior to polyacrylamide electrophoresis, additional SDS (to 2% final concentration), glycerol (to 2% final concentration), β-mercaptoethanol (to 2% final concentration) and dithiothreitol (2 mM final concentration) were added. Proteins were separated electrophoretically on 7% acrylamide gels and transferred onto polyvinylidene difluoride (PVDF) membranes. […]
The primary antibodies were conjugated with either peroxidase-labeled donkey anti-rabbit IgG (GE Healthcare Amersham (Piscataway, USA) cat# NA934) or peroxidase-labeled goat anti-mouse IgG (GE Healthcare Amersham cat# NA931) secondary antibodies. […] Developed films were evaluated densitometrically using “Image J” software (freely available from the NIH); digital images were evaluated with Image Lab software (Bio-Rad). […]

Compound	SAH-induced increase in Fluoro-Jade positive cortical cells [1]	SAH-induced increase in cleaved caspase-3 positive cortical cells [1]	cerebral artery CFTR protein expression in SAH (CFTR)
O=C(Nc1ncc(C(c2ccccc2Cl)N2CCC(O)C2)s1)C1(c2ccc3c(c2)OCO3)CC1 (stereo not drawn) [C18, 1-(benzo[d][1,3]dioxol-5-yl)-N-(5-((2-chlorophenyl)(3-hydroxypyrrolidin-1-yl)methyl)thiazol-2-yl)cyclopropanecarboxamide]	dramatically attenuate; also recorded: abolish	dramatically attenuate; also recorded: abolish	restores; also recorded: eliminates this reduction
Cc1ccc(NC(=O)C2(c3ccc4c(c3)OC(F)(F)O4)CC2)nc1-c1cccc(C(=O)O)c1 [lumacaftor]	dramatically attenuate; also recorded: abolish	dramatically attenuate; also recorded: abolish	restores; also recorded: eliminates this reduction
